US10138232B2, “Naphthyridinedione derivatives” (NOVARTIS AG, priority 2014, dated 2018)

Test system: CFTR-Y122X (GFP-CFTR-Y122X-Renilla construct) in Hek293 cell lines
Assay: CFTR-Y122X assay (dual reporter readthrough, Renilla luminescence)
Assay type: cell-based
Conditions: Homo sapiens, compounds incubated 24 h, tested up to 100 μM; for AC50: nonsense mutation suppression in the CFTR-Y122X assay; for Emax: nonsense mutation suppression, 100% activity = 14 mM paromomycin, read-out: Amax
Source text: In particular, compounds of formula (I), (I′), (Ia), (Ia′) or (Ib) I act as nonsense mutation suppressors on frequent PTCs, e.g. on Y122X in the mRNA of the cystic fibrosis conductance regulator protein (CFTR). This can be determined in vitro, for example, using cell lines expressing GFP-CFTR-Y122X-Renilla constructs as described herein.
Activity of compounds of the present invention was examined in recombinant, dual reporter isogenic Hek293 cell lines (“CFTR-Y122X assay”). The engineered reporter constructs contained the 18 bp sequence strech corresponding to a common Y122X PTC mutation in CFTR class I mutant patients (see Sermet-Gaudelus, BMC Medicine, 2007, 5(5)). Instead of a tyrosine (Y) in position 122 of the CFTR protein a TGA stop codon interrupts the open reading frame (Y122X) of the corresponding mRNA. This TGA stop codon triplet (followed by the pyrimidine base cytosine) is permissive to aminoglycoside mediated translational readthrough which served as positive control for high throughput screening. A corresponding TAA stop codon variant and a wildtype non mutated construct was used for confirmation and counter screening. The CFTR sequence was sandwiched between an eGFP reporter, and a triple myc tag sequence fused to a full length Renilla reporter. All sequences, including an intron containing one positioned pre-eGFP (b-globin intron) were cloned in frame. The corresponding expression constructs were stably expressed in the isogenic HEK-R4 cell host (Invitrogen Incorp.) and selected by blasticidin resistance. The isogenic integration of the construct minimizes gene dose effects and improves assay reproducibility. Stably integrated single cell derived clones were selected and characterized for aminoglycoside mediated readthrough. […] Readthrough of Y122X accumulates an intracellular localized fusion protein approximately 65.5 kDa in size as controlled by western blot analysis and immunofluorescence using an anti-renilla antibody. The eGFP reporter pre-PTC mutation serves as visual control for genetic stability of the screening clones and minimizes protein degradation of small fusion protein amounts. In the assay, compound concentration was 10 μM. In miniaturized 1536 well format 2000 cells were dispensed in 4 μl/well and incubated for 24 h at 37° C., 5% CO2. 40 nl compounds were placed on the cells with control wells containing 1 ul Paramomycin and 14.4 mM final concentration. Compounds were incubated for 24 h. Renilla Glo substrate (2.5 ul) was added and plates were centrifuged and processed for luminescence measurement using various readers. Activity calculation was done using the equation: A1(%)=100*(S−NC)/(AC−NC) where AC, NC and S correspond to active controls (injection of Stimulation buffer=100% stimulation), neutral controls (buffer injection which Iloprost EC10) and screening samples (S). NC corresponds to 0% activity whereas AC is 100% activity (14 mM paromomycin). False positive artefacts were removed in confirmation and validation screening using the same assay format followed by counterscreening using the respective wildtype construct (w/o PTC mutation) cell model. Compounds were tested up to 100 μM compound concentration.

## Cc1csc2c(=O)c3c(=O)n(-c4ccccc4)c(C(C)C)cc3n(C)c12 [Example 1.21, 6-isopropyl-3,4-dimethyl-7-phenylthieno[3,2-b][1,6]naphthyridine-8,9(4H,7H)-dione]
  AC50: 5400 nM
  Emax: 379%

## CC(C)c1cc2c(c(=O)c3cccc(O)c3n2C)c(=O)n1-c1ccccc1 [Example 1.52, 6-hydroxy-3-isopropyl-5-methyl-2-phenylbenzo[b][1,6]naphthyridine-1,10(2H,5H)-dione]
  AC50: 21000 nM
  Emax: 49%

## Cn1c2cc(C3CCC3)n(-c3ccccc3)c(=O)c2c(=O)c2ccsc21 [Example 1.29, 7-cyclobutyl-9-methyl-6-phenylthieno[2,3-b][1,6]naphthyridine-4,5(6H,9H)-dione]
  AC50: 700 nM
  Emax: 286%

## Cn1c2ccccc2c(=O)c2c(=O)n(-c3ccccc3)c(C3CCC3)cc21 [Example 1.2, 3-Cyclobutyl-5-methyl-2-phenylbenzo[b][1,6]naphthyridine-1,10(2H,5H)-dione]
  AC50: 1000 nM
  Emax: 260%

## O=c1c2cc(F)ccc2[nH]c2cc(C3CCC3)n(-c3ccccc3)c(=O)c12 [Example 1.44, 3-cyclobutyl-8-fluoro-2-phenylbenzo[b][1,6]naphthyridine-1,10(2H,5H)-dione]
  AC50: 400 nM
  Emax: 178%

## CC(C)c1cc2[nH]c3sccc3c(=O)c2c(=O)n1C1CCCC1 [Example 2.15, 6-cyclopentyl-7-isopropylthieno[2,3-b][1,6]naphthyridine-4,5(6H,9H)-dione]
  Emax: 124%

## COc1cccc2c(=O)c3c(=O)n(-c4ccccc4)c(C4CCC4)cc3[nH]c12 [Example 1.48, 3-cyclobutyl-6-methoxy-2-phenylbenzo[b][1,6]naphthyridine-1,10(2H,5H)-dione]
  AC50: 1800 nM
  Emax: 227%

## CC(C)c1cc2c(c(=O)c3cc(F)ccc3n2C)c(=O)n1-c1ccccc1 [Example 1.6, 8-fluoro-3-isopropyl-5-methyl-2-phenylbenzo[b][1,6]naphthyridine-1,10(2H,5H)-dione]
  AC50: 7700 nM
  Emax: 507%

## O=c1c2ccccc2[nH]c2cc(C3CCC3)n(N3CCCC3)c(=O)c12 [Example 2.7, 3-cyclobutyl-2-(pyrrolidin-1-yl)benzo[b][1,6]naphthyridine-1,10(2H,5H)-dione]
  AC50: 700 nM
  Emax: 197%

## O=c1c2cccc3c2n(c2cc(C4CCC4)n(-c4ccccc4)c(=O)c12)CC3 [Example 1.45, 9-cyclobutyl-8-phenyl-1H-indolo[1,7-ab][1,6]naphthyridine-6,7(2H,8H)-dione]
  AC50: 600 nM
  Emax: 252%

## CC(C)c1cc2[nH]c3c(c(=O)c2c(=O)n1-c1ccccc1)CCCC3 [Example 1.22, 3-isopropyl-2-phenyl-6,7,8,9-tetrahydrobenzo[b][1,6]naphthyridine-1,10(2H,5H)-dione]
  AC50: 7200 nM
  Emax: 413%

## CC(C)c1cc2c(c(=O)c3cc(Cl)ccc3n2C)c(=O)n1-c1ccccc1 [Example 1.8, 8-chloro-3-isopropyl-5-methyl-2-phenylbenzo[b][1,6]naphthyridine-1,10(2H,5H)-dione]
  AC50: 14800 nM
  Emax: 307%

## Cn1c2ccccc2c(=O)c2c(=O)n(N3CCCC3)c(C3CCC3)cc21 [Example 2.8, 3-cyclobutyl-5-methyl-2-(pyrrolidin-1-yl)benzo[b][1,6]naphthyridine-1,10(2H,5H)-dione]
  AC50: 6100 nM
  Emax: 188%

## Cc1cc2c(=O)c3c(=O)n(-c4ccccc4)c(C4CCC4)cc3n(C)c2s1 [Example 1.31, 7-cyclobutyl-2,9-dimethyl-6-phenylthieno[2,3-b][1,6]naphthyridine-4,5(6H,9H)-dione]
  AC50: 600 nM
  Emax: 228%

## CC(C)c1cc2c(c(=O)c3ccccc3n2C)c(=O)n1C1CCCC1 [Example 2.4, 2-cyclopentyl-3-isopropyl-5-methylbenzo[b][1,6]naphthyridine-1,10(2H,5H)-dione]
  AC50: 1800 nM
  Emax: 274%

## COc1cccc2c(=O)c3c(=O)n(-c4ccccc4)c(C(C)C)cc3n(C)c12 [Example 1.43, 3-isopropyl-6-methoxy-5-methyl-2-phenylbenzo[b][1,6]naphthyridine-1,10(2H,5H)-dione]
  AC50: 22000 nM
  Emax: 186%

## CC(C)c1cc2c(c(=O)c3cc(O)ccc3n2C)c(=O)n1-c1ccccc1 [Example 1.51, 8-hydroxy-3-isopropyl-5-methyl-2-phenylbenzo[b][1,6]naphthyridine-1,10(2H,5H)-dione]
  AC50: 16500 nM
  Emax: 144%

## O=c1c2ccsc2[nH]c2cc(C3CCC3)n(-c3ccccc3)c(=O)c12 [Example 1.32, 7-cyclobutyl-6-phenylthieno[2,3-b][1,6]naphthyridine-4,5(6H,9H)-dione]
  AC50: 4200 nM
  Emax: 247%

## CC(C)c1cc2c(c(=O)c3ccsc3n2C)c(=O)n1C1CCCC1 [Example 2.16, 6-cyclopentyl-7-isopropyl-9-methylthieno[2,3-b][1,6]naphthyridine-4,5(6H,9H)-dione]
  AC50: 1200 nM
  Emax: 279%

## O=c1c2ccccc2[nH]c2cc(C3CCC3)n(C3CCCC3)c(=O)c12 [Example 2.1, 3-cyclobutyl-2-cyclopentylbenzo[b][1,6]naphthyridine-1,10(2H,5H)-dione]
  AC50: 500 nM
  Emax: 229%

## CC(C)c1cc2c(c(=O)c3ccccc3n2C)c(=O)n1N1CCCC1 [Example 2.12, 3-isopropyl-5-methyl-2-(pyrrolidin-1-yl)benzo[b][1,6]naphthyridine-1,10(2H,5H)-dione]
  AC50: 1700 nM
  Emax: 178%

## Cc1cc2c(=O)c3c(=O)n(-c4ccccc4)c(C4CCC4)cc3[nH]c2s1 [Example 1.33, 7-cyclobutyl-2-methyl-6-phenylthieno[2,3-b][1,6]naphthyridine-4,5(6H,9H)-dione]
  AC50: 19400 nM
  Emax: 243%

## O=c1c2cc(Cl)ccc2[nH]c2cc(C3CCC3)n(-c3ccccc3)c(=O)c12 [Example 1.40, 8-chloro-3-cyclobutyl-2-phenylbenzo[b][1,6]naphthyridine-1,10(2H,5H)-dione]
  AC50: 1000 nM
  Emax: 300%

## Cc1cc2[nH]c3cc(C4CCC4)n(-c4ccccc4)c(=O)c3c(=O)c2s1 [Example 1.37, 6-cyclobutyl-2-methyl-7-phenylthieno[3,2-b][1,6]naphthyridine-8,9(4H,7H)-dione]
  AC50: 1400 nM
  Emax: 164%

## Cn1c2c(c(=O)c3c(=O)n(-c4ccccc4)c(C4CCC4)cc31)CCCC2 [Example 1.28, 3-cyclobutyl-5-methyl-2-phenyl-6,7,8,9-tetrahydrobenzo[b][1,6]naphthyridine-1,10(2H,5H)-dione]
  AC50: 12800 nM
  Emax: 257%

## Cc1c(C)n(C)c2cc(C3CCC3)n(-c3ccccc3)c(=O)c2c1=O [Example 1.25, 7-cyclobutyl-1,2,3-trimethyl-6-phenyl-1,6-naphthyridine-4,5(1 H,6H)-dione]
  AC50: 16800 nM
  Emax: 87%

## Cc1cc2c(=O)c3c(=O)n(-c4ccccc4)c(C(C)C)cc3n(C)c2s1 [Example 1.15, 7-isopropyl-2,9-dimethyl-6-phenylthieno[2,3-b][1,6]naphthyridine-4,5(6H,9H)-dione]
  AC50: 5500 nM
  Emax: 224%
